Consider eleven molecules from patent publication US8236791B2, “Assays for S100 inhibitors” (Albert Einstein College of Medicine of Yeshiva University, priority 2005, dated 2012).

Assay [1] deals with T1, S100A4 (Homo sapiens, UniProt P26447).
T1 construct: It is a chemical label, not a fused protein
Kind of assay: S100A4 biosensor (Mero-S100A4) fluorescence assay for S100A4 inhibitors. The class given is biochemical. The following applies: screening assay: 5 μM S100A4 biosensor (dimer), 100 μM FDA approved drug, 0.3 mM CaCl2; controls: no addition 8475, calcium 14996, calcium + EGTA 6088. The text has this: We produced and characterized a fluorescent analog of S100A4 (Mero-S100A4) that reports calcium binding, and thus serves to identify activated S100A4 (Garrett et al., 2004). To produce the S100A4 biosensor that monitors protein activation (i.e., calcium binding) Cys81 was derivatized with the ISO-IAA dye to a stoichiometry of 1:1 (FIG. 2).
Binding of the Mero-S100A4 to myosin-IIA results in only a small increase in fluorescence intensity (FIG. 3, right panel). These observations indicate that the S100A4 biosensor reports only calcium binding and not target binding. In addition, calcium binding studies indicate that mutagenesis and dye attachment have not altered the binding affinity of the labeled S100A4 for calcium (data not shown).
A total of 333 FDA approved drugs were tested for their ability to inhibit S100A4, using the biosensor described in Example 1. Screening assays used 5 μM S100A4 biosensor (dimer concentration), 100 μM FDA approved drug, buffer: 50 mM Tris-HCl, pH 7.5, 150 mM NaCl, 0.3 mM CaCl2, 0.02% NaN3, 1 mM DTT, 10% DMSO. […] 100 μl assay volume.

The target of assay [2] is T1, S100A4. Described as above. Format: biochemical. Conditions: 5 μM S100A4 biosensor, 0-400 μM small molecule inhibitor, 0.3 mM CaCl2 buffer.

pIC50: −log10 of the molar value.

T1 sequence (P26447 whole entry C3A/C76A/C86A, form open, the tested form may be a part): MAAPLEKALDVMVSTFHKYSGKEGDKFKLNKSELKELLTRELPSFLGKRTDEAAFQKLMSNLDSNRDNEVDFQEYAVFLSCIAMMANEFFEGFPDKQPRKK

As to `CC(C)COCC(CN(Cc1ccccc1)c1ccccc1)N1CCCC1` (stereo not drawn) [bepridil], on S100A4 [1], the “Arbitrary Fluorescence Units” value was 6954 Arbitrary Fluorescence Units. On S100A4 [2], this molecule showed a pIC50 of 4.46.
Taken in the same sequence, the figures for `CN(C)CC/C=C1/c2ccccc2Sc2ccc(Cl)cc21` [chlorprothixene] were 7977 Arbitrary Fluorescence Units and 3.84.
As to `CN(C)CCCN1c2ccccc2CCc2ccc(Cl)cc21` [clomipramine], the “Arbitrary Fluorescence Units” value on S100A4 [1] is given as 7898 Arbitrary Fluorescence Units. The negative logarithm of the IC50 (pIC50) on S100A4 [2] was 3.88.
As to `CN1CCC(=C2c3ccccc3C=Cc3ccccc32)CC1` [cyproheptadine], on S100A4 [2], the pIC50 is 3.59.
Regarding `OCCN1CCN(CC/C=C2/c3ccccc3Sc3ccc(C(F)(F)F)cc32)CC1` [flupenthixol-cis], the “Arbitrary Fluorescence Units” value on S100A4 [1] was 6449 Arbitrary Fluorescence Units. On S100A4 [2], the pIC50 was 4.23.
Take `OCCN1CCN(CCCN2c3ccccc3Sc3ccc(C(F)(F)F)cc32)CC1` [fluphenazine]: at S100A4 [1], the “Arbitrary Fluorescence Units” value was 6908 Arbitrary Fluorescence Units. This molecule gave a pIC50 at S100A4 [2] of 4.34.
Taken in the same sequence, the figures for `CC(=O)N1CCN(c2ccc(OCC3COC(Cn4ccnc4)(c4ccc(Cl)cc4Cl)O3)cc2)CC1` (stereo not drawn) [ketoconazole] were 7759 Arbitrary Fluorescence Units and 4.64.
In the case of `CN(C)C(=O)C(CCN1CCC(O)(c2ccc(Cl)cc2)CC1)(c1ccccc1)c1ccccc1` [loperamide], the “Arbitrary Fluorescence Units” value at S100A4 [1] is 3820 Arbitrary Fluorescence Units. The molecule also had a pIC50 on S100A4 [2] of 4.74.
With `OCCN1CCN(CCCN2c3ccccc3Sc3ccc(Cl)cc32)CC1` [perphenazine], the “Arbitrary Fluorescence Units” value at S100A4 [1] is reported as 7399 Arbitrary Fluorescence Units. Further, on S100A4 [2], the negative-log IC50 (pIC50) was 3.79.
On to `CN1CCN(CCCN2c3ccccc3Sc3ccc(Cl)cc32)CC1` [prochlorperazine], for which, on S100A4 [1], the “Arbitrary Fluorescence Units” value is given as 5505 Arbitrary Fluorescence Units. At S100A4 [2], the negative-log IC50 (pIC50) was 4.48.
`CN1CCN(CCCN2c3ccccc3Sc3ccc(C(F)(F)F)cc32)CC1` [trifluoperazine]: the “Arbitrary Fluorescence Units” value on S100A4 [1] is listed as 7939 Arbitrary Fluorescence Units. The pIC50 on S100A4 [2] was 4.47.
